Patent US20160008470A1, “STORAGE-STABLE COMPOSITIONS OF GLYCEROL MONOALKYL ETHERS” (AIR LIQUIDE SANTE (INTERNATIONAL), priority 2000, published 2016)
Structures can show the parent of a compound that is named as a salt.

Legend:
[1] = Peroxide number (PON) by titration with sodium thiosulphate; type: physicochemical; details: for peroxide number as a function of time: Example 2, salt solution added to Sensiva SC 50
Description: The peroxide number (PON) gives the amount peroxide in milliequivalents of active oxygen which is present in 1000 g of substance, determined in accordance with the method below. • 5.00 g of substance are weighed into a 250 ml Erlenmeyer flask with ground-glass stopper and dissolved in 30 ml of a mixture of 2 parts by volume of chloroform R and 3 parts by volume of acetic acid 98% R with shaking. […] Following the addition of 5 ml of starch solution R, the titration is continued with vigorous shaking until the blue coloration disappears (n1 ml of 0.01 N sodium thiosulphate solution). A control experiment is carried out under the same conditions (n2 ml of 0.01 N sodium thiosulphate solution). For this, at most 0.1 ml of 0.01 N sodium thiosulphate solution must be consumed.
The peroxide number is calculated as follows: […]
where m is the initial weight of the substance in grams.
The method is explained in more detail in DAB 9-Kornrnentar [German Pharmacopoeia 9 Commentary] (K. Hartke, E. Mutschler, Editor, Wissenschaftliche Verlagsgesellschaft mbH Stuttgart, 9th edition 1986).
(§1) The peroxide number of compositions of Sensiva® SC 50 and Lipacide e8G salts was compared with the stability of mixtures of Sensiva® SC 50 and other 30 salts.

Hazen colour number = type: physicochemical
[2] = Appearance of the storage bottle (neck-in effect); type: physicochemical; details: for Appearance of the bottle: Example 1, storage at room temperature
Description: (§2) Following preparation of the samples, the value for ppm of H2O2 and the pH were determined at regular intervals.

[3] = Appearance of the composition; type: physicochemical
Description: n.c.=no change, d.=days, m.=months, w.=weeks, y.=years, n.d.=not detectable, cl=clear, c=colourless, kr=crystals, yl=yellowish, S.=start of the investigation.
as §1

[4] = Merckoquant peroxide test (ppm of H2O2) during storage at room temperature; details: for ppm of H2O2: storage at room temperature; for stabilizing effect: 0.05% by weight of the antioxidant; for stabilization of the glycerol monoalkyl ethers over a long period (peroxides, neck-in effect): added to Sensiva SC 50, storage at room temperature, Table 1
Description: The data in “ppm of H2O2” refer to the peroxide determination using Merckoquant® peroxide test analysis strips. This semiquantitative method for determining peroxide was carried out as follows: • About 0.5 g of the sample to be investigated is placed in a test tube and treated with the same amount of demineralized water. The two phases are mixed by shaking, and a Merckoquant® peroxide test analysis strip is dipped in for one second. The damp strip is removed from the liquid and the peroxide content is read off after 15 seconds using the reference scale and noted. If the peroxide content is too high, the amount is doubled with demineralized water, again shaken etc., until a reading is possible using the reference scale. The value obtained is back-calculated using the dilution.
as §2

[5] = pH of 50% strength slurry in demineralized water, Merck pH indicator strips; type: physicochemical; details: storage at room temperature
Description: The pH of the anhydrous solutions is given as the value which a 50% strength slurry of the respective anhydrous solution in demineralized water has, determined using Merck® pH indicator strips.

[6] = Example 2, start of the investigation
[7] = Example 2, after storage, time not printed (line below the 2 y. 2 m. lines)

In the case of `CCCCC(CC)COCC(O)CO` (stereo not shown) [Experiment A, 3-[(2-ethylhexyl)oxy]-1,2-propanediol], the “PON 2 y. 11 m.” value ([1]; Example 1, storage at room temperature, 2 y. 11 m., n.d.=not detectable) is reported as 25.3 milliequivalents of active oxy, the PONS. [1, 6] is reported as 10 milliequivalents of active oxy and the PON ([1]; Example 2, storage 2 y. 2 m.) is reported as 5-10 milliequivalents of active oxy. The PON ([1]; Example 2, storage 6 m.) was 20 milliequivalents of active oxy, the PON ([1]; Example 2, storage 6 w.) was 25 milliequivalents of active oxy and the PON ([1]; Example 2, storage 11 w.) was 25 milliequivalents of active oxy. The PON ([1]; Example 2, storage 4 d.) was 10 milliequivalents of active oxy, the PON ([1]; Example 2, storage 9 d.) was 10-25 milliequivalents of active oxy and the Hazen colour number (Hazen colour number; Example 1, storage at room temperature, 8 w.) was less than 5. The Hazen colour number (Hazen colour number; [7]) was 0, the “Appearance of the bottle” value ([2]; 2 y. 11 m., listed as A) was “consider-” and the “Appearance of the bottle” value ([2]; 2 y., listed as A) was “neck in”. For the same compound, the PE bottle ([2]; Example 2, storage 2 y. 2 m.) was “considerable”, the Appearance [3, 7] was “cl c” and the “Appearance S.” value [3, 6] was “cl c”. The “development of the peroxide content in stored preparations” value ([4]; Table 1, storage) was “chaotic development of the peroxide number”, the “ppm of H2O2” value ([4]; 2 m., listed as A) was 2-5 ppm and the “ppm of H2O2” value ([4]; 2 w., listed as A) was 2-5 ppm. The “ppm of H2O2” value ([4]; 2 y., listed as A) was 10-25 ppm, the “ppm of H2O2” value ([4]; 3 m., listed as A) was 2-5 ppm and the “ppm of H2O2” value ([4]; 4 m., listed as A) was 5 ppm. The “ppm of H2O2” value ([4]; 5 m., listed as A) was 5 ppm, the “ppm of H2O2” value ([4]; 6.5 m., listed as A) was 5 ppm and the “ppm of H2O2” value ([4]; 7 w., listed as A) was 2-5 ppm. The “ppm of H2O2” value ([4]; 8 w., listed as A) was 2-5 ppm, the “ppm of H2O2” value ([4]; 8.5 m., listed as A) was 5 ppm and the “ppm of H2O2” value ([4]; 11 m., listed as A) was 10 ppm. For the same compound, the “ppm of H2O2” value ([4]; 7 d., listed as A) was 2 ppm and the “ppm of H2O2” value ([4]; 9 d., listed as A) was 2 ppm.

Work on `CCCCC(CC)COCC(O)CO` (stereo not shown) [Experiment A(Alu), 3-[(2-ethylhexyl)oxy]-1,2-propanediol] yielded a pH ([5]; 2 m.) of 3, a pH ([5]; 2 w.) of 3 and a pH ([5]; 3 w.) of 3. For the same compound, the pH ([5]; 4 w.) was 3, the pH ([5]; 5 w.) was 3 and the pH ([5]; 6 w.) was 3. The pH ([5]; 7 w.) was 3, the pH ([5]; 8 w.) was 3 and the pH ([5]; 7 d.) was 3. The pH ([5]; 9 d.) was 3, the “PON S.” value ([1]; Example 1, start of the investigation) was 0.5 milliequivalents of active oxy and the “Appearance of the bottle” value ([2]; 2 y. 11 m., listed as A(Alu)) was “n.c”. The “Appearance of the bottle” value ([2]; 2 y., listed as A(Alu)) was “n.c”, the “ppm of H2O2” value ([4]; 1 y.) was 10 ppm and the “ppm of H2O2” value ([4]; 2 m., listed as A(Alu)) was 25 ppm. The “ppm of H2O2” value ([4]; 2 w., listed as A(Alu)) was 2 ppm, the “ppm of H2O2” value ([4]; 2 y., listed as A(Alu)) was 0 ppm and the “ppm of H2O2” value ([4]; 3 m., listed as A(Alu)) was 25-50 ppm. For the same compound, the “ppm of H2O2” value ([4]; 3 w.) was 2-5 ppm, the “ppm of H2O2” value ([4]; 4 m., listed as A(Alu)) was 25-50 ppm and the “ppm of H2O2” value ([4]; 4 w.) was 2-5 ppm. The “ppm of H2O2” value ([4]; 5 m., listed as A(Alu)) was 50 ppm, the “ppm of H2O2” value ([4]; 5 w.) was 2-5 ppm and the “ppm of H2O2” value ([4]; 6 w.) was 2-5 ppm. For the same compound, the “ppm of H2O2” value ([4]; 6.5 m., listed as A(Alu)) was 50 ppm, the “ppm of H2O2” value ([4]; 7 w., listed as A(Alu)) was 5 ppm and the “ppm of H2O2” value ([4]; 8 w., listed as A(Alu)) was 5 ppm. For the same compound, the “ppm of H2O2” value ([4]; 8.5 m., listed as A(Alu)) was 25-50 ppm, the “ppm of H2O2” value ([4]; 11 m., listed as A(Alu)) was 10-25 ppm and the “ppm of H2O2” value ([4]; 14 m.) was 10 ppm. The “ppm of H2O2” value ([4]; 16 m.) was 10 ppm, the “ppm of H2O2” value ([4]; 7 d., listed as A(Alu)) was 0.5 ppm and the “ppm of H2O2” value ([4]; 9 d., listed as A(Alu)) was 0.5-1 ppm.

With `O=C([O-])CC(O)(CC(=O)[O-])C(=O)[O-].[Na+].[Na+].[Na+]` [sodium citrate] the “peroxide number as a function of time” value [1] was “could not be achieved”.

In the case of `Cc1cc(C(C)(C)C)c(O)c(C(C)(C)C)c1` [BHT, 2,6-di-tert-butyl-p-cresol], the stabilizing effect [4] is reported as “exhibit the stabilizing effect” and the “stabilization of the glycerol monoalkyl ethers over a long period (peroxides, neck-in effect)” value [4] is reported as “stabilize the glycerol monoalkyl ethers over a long period”.

For `CCCCCCCC(=O)NCC(=O)O` [Lipacide C8G sodium salts, N-octanoylglycine], the “peroxide number as a function of time” value [1] was “the peroxide number decreases as a function of time” and the neck-in effect ([2]; Example 2, salt solution added to Sensiva SC 50) was “the neck-in effect is avoided”.

For `CC(C)(CO)[C@@H](O)C(=O)NCCCO` [dexpanthenol], the stabilizing effect [4] was “exhibit the stabilizing effect” and the “stabilization of the glycerol monoalkyl ethers over a long period (peroxides, neck-in effect)” value [4] was “stabilize the glycerol monoalkyl ethers over a long period”.

For `Cc1c(C)c2c(c(C)c1O)CC[C@@](C)(CCC[C@H](C)CCC[C@H](C)CCCC(C)C)O2` [vitamin E, Alpha-tocopherol], the stabilizing effect [4] was “exhibit the stabilizing effect” and the “stabilization of the glycerol monoalkyl ethers over a long period (peroxides, neck-in effect)” value [4] was “stabilize the glycerol monoalkyl ethers over a long period”.

For `COc1ccc(O)c(C(C)(C)C)c1` [BHA, 3-tert-butyl-4-hydroxyanisole], the stabilizing effect [4] was “exhibit the stabilizing effect” and the “stabilization of the glycerol monoalkyl ethers over a long period (peroxides, neck-in effect)” value [4] was “stabilize the glycerol monoalkyl ethers over a long period”.

For `O=S(=O)([O-])[O-].[Na+].[Na+]` [sodium sulphate], the “peroxide number as a function of time” value [1] was “could not be achieved”.

For `CCCCCCCCCCCCCCCC(=O)OC[C@H](O)[C@H]1OC(=O)C(O)=C1O` [ascorbyl palmitate, 6-0-palmitoyl-L-ascorbic acid], the “effect on stabilization of the glycerol monoalkyl ether by vitamin E” value ([4]; Experiments N and O) was “inhibit its stabilization by vitamin E” and the “stabilization of the glycerol monoalkyl ethers over a long period (peroxides, neck-in effect)” value [4] was “does not stabilize the glycerol monoalkyl ethers”.
